Assay results published in patent US8614201B2 (Janssen Pharmaceutica NV, priority 2009, dated 2013).
pIC50: −log10 of the molar value.

Biological target: Human TRPA1 (Homo sapiens, UniProt O75762)
Assay: Assay 1: In vitro cellular testing of TRPA1 modulation (CHO-TREx, Fluo-3 calcium fluorescence, AITC agonist)
Assay type: cell-based
Design: expressed in transfected cells; host or cells: CHO-TREx cells (Invitrogen), vector pcDNA4/TO
Details: CHO-TREx cells expressing human TRPA1; Fluo-3 fluorescence (FLIPR/Tetra); agonist 15 μM allyl isothiocyanate (AITC); 30 minute antagonist incubation
In short: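 Antagonist potency is the 50% reduction of the AITC (15 μM) calcium response, Hill-fitted against no-antagonist and 10 μM ruthenium red controls. Fluo-3-loaded (4 μM) CHO-TREx cells with tetracycline-inducible human TRPA1 got compound in HEPES saline pH 7.4 for 30 min, usually from 10 μM in three-fold dilutions.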

Sequence of Human TRPA1 (O75762 whole entry): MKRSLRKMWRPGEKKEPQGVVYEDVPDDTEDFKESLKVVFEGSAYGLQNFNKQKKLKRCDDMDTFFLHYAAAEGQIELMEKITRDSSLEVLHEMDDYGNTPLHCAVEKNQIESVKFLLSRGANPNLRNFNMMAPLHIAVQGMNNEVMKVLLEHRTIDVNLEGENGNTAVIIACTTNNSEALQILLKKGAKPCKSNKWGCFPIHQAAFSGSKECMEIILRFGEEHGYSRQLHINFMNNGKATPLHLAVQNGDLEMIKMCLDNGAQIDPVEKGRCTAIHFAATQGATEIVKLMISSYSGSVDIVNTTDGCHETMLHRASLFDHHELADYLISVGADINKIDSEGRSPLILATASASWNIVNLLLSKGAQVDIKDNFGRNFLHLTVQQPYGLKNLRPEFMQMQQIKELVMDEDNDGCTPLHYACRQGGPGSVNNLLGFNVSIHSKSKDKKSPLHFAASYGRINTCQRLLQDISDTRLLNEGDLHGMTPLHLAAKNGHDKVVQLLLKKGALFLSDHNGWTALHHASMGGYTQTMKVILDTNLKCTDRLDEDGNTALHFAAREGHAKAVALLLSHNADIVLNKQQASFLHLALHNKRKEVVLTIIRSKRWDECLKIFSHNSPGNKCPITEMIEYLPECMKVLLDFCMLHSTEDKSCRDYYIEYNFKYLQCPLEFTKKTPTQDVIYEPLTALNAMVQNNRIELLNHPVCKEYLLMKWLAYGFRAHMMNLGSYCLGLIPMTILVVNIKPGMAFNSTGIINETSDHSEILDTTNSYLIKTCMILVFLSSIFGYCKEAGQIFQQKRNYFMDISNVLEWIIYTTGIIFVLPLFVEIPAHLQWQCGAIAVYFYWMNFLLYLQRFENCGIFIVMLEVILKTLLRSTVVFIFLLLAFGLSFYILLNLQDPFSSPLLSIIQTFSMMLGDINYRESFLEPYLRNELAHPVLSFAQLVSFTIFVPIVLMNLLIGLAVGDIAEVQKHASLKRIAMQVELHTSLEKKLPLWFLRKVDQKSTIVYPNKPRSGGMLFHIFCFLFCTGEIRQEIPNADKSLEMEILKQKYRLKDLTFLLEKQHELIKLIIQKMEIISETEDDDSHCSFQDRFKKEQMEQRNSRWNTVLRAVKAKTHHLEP

pIC50	SMILES
< 5.00	CC(Nc1cc(CNC(=O)[C@@H]2C=CCN2S(=O)(=O)c2ccc(Cl)s2)cc(-c2ccc(C(F)(F)F)cc2)n1)c1cccnc1 (stereo partly drawn) [Example 351, (2S)-1-[(5-Chlorothiophen-2-yl)sulfonyl]-N-({2-[(1-pyridin-3-ylethyl)amino]-6-[4-(trifluoromethyl)phenyl]pyridin-4-yl}methyl)-2,5-dihydro-1H-pyrrole-2-carboxamide]
5.15	O=C(NCc1cc(NCc2ccccc2)nc(-c2ccc(C(F)(F)F)cc2)c1)[C@@H]1CC(F)(F)CN1S(=O)(=O)c1ccc(Cl)s1 [Example 352, N-({2-(Benzylamino)-6-[4-(trifluoromethyl)phenyl]pyridin-4-yl}methyl)-1-[(5-chlorothiophen-2-yl)sulfonyl]-4,4-difluoro-L-prolinamide]
5.56	O=C(NCc1cc(-c2ccc(C(F)(F)F)cc2)nc(N2CCN(Cc3ccccn3)CC2)c1)[C@@H]1C=CCN1S(=O)(=O)c1ccc(F)cc1 [Example 353, (2S)-1-[(4-Fluorophenyl)sulfonyl]-N-({2-[4-(pyridin-2-ylmethyl)piperazin-1-yl]-6-[4-(trifluoromethyl)phenyl]pyridin-4-yl}methyl)-2,5-dihydro-1H-pyrrole-2-carboxamide]
5.97	O=C(NCc1cc(-c2ccc(C(F)(F)F)cc2)nc(N2CCN(Cc3ccccn3)CC2)c1)[C@@H]1C=CCN1S(=O)(=O)c1ccc(Cl)s1 [Example 354, (2S)-1-[(5-Chlorothiophen-2-yl)sulfonyl]-N-({2-[4-(pyridin-2-ylmethyl)piperazin-1-yl]-6-[4-(trifluoromethyl)phenyl]pyridin-4-yl}methyl)-2,5-dihydro-1H-pyrrole-2-carboxamide]
6.05	O=C(NCc1cc(-c2ccc(C(F)(F)F)cc2)nc(N2CCN(Cc3cccnc3)CC2)c1)[C@@H]1C=CCN1S(=O)(=O)c1ccc(Cl)s1 [Example 355, (2S)-1-[(5-Chlorothiophen-2-yl)sulfonyl]-N-({2-[4-(pyridin-3-ylmethyl)piperazin-1-yl]-6-[4-(trifluoromethyl)phenyl]pyridin-4-yl}methyl)-2,5-dihydro-1H-pyrrole-2-carboxamide]
< 5.00	O=C(NCc1cc(-c2ccc(C(F)(F)F)cc2)nc(N2CCN(Cc3ccncc3)CC2)c1)[C@@H]1CC(F)(F)CN1S(=O)(=O)c1ccc(F)cc1 [Example 356, 4,4-Difluoro-1-[(4-fluorophenyl)sulfonyl]-N-({2-[4-(pyridin-4-ylmethyl)piperazin-1-yl]-6-[4-(trifluoromethyl)phenyl]pyridin-4-yl}methyl)-L-prolinamide]
< 5.00	O=C(NCc1cc(-c2ccc(C(F)(F)F)cc2)nc(N2CCN(c3ccccc3F)CC2)c1)[C@@H]1CC(F)(F)CN1S(=O)(=O)c1ccc(F)cc1 [Example 357, 4,4-Difluoro-N-({2-[4-(2-fluorophenyl)piperazin-1-yl]-6-[4-(trifluoromethyl)phenyl]pyridin-4-yl}methyl)-1-[(4-fluorophenyl)sulfonyl]-L-prolinamide]
< 5.00	O=C(NCc1cc(-c2ccc(C(F)(F)F)cc2)nc(N2CCN(c3ccccc3F)CC2)c1)[C@@H]1CC(F)(F)CN1S(=O)(=O)c1ccc(Cl)s1 [Example 358, 1-[(5-Chlorothiophen-2-yl)sulfonyl]-4,4-difluoro-N-({2-[4-(2-fluorophenyl)piperazin-1-yl]-6-[4-(trifluoromethyl)phenyl]pyridin-4-yl}methyl)-L-prolinamide]
5.92	O=C(NCc1cc(-c2ccc(C(F)(F)F)cc2)nc(N2CCN(c3ccccc3F)CC2)c1)[C@@H]1C=CCN1S(=O)(=O)c1ccc(Cl)s1 [Example 359, (2S)-1-[(5-Chlorothiophen-2-yl)sulfonyl]-N-({2-[4-(2-fluorophenyl)piperazin-1-yl]-6-[4-(trifluoromethyl)phenyl]pyridin-4-yl}methyl)-2,5-dihydro-1H-pyrrole-2-carboxamide]
5.64	CNc1cc(CNC(=O)[C@@H]2CC(F)(F)CN2S(=O)(=O)c2ccc(F)cc2)cc(-c2ccc(C(F)(F)F)cc2)n1 [Example 360, 4,4-Difluoro-1-[(4-fluorophenyl)sulfonyl]-N-({2-(methylamino)-6-[4-(trifluoromethyl)phenyl]pyridin-4-yl}methyl)-L-prolinamide]
6.34	O=C(NCc1cc(-c2ccc(C(F)(F)F)cc2)nc(N2CCN(Cc3ccccc3)CC2)c1)[C@@H]1C=CCN1S(=O)(=O)c1ccc(F)cc1 [Example 361, (2S)—N-({2-(4-Benzylpiperazin-1-yl)-6-[4-(trifluoromethyl)phenyl]pyridin-4-yl}methyl)-1-[(4-fluorophenyl)sulfonyl]-2,5-dihydro-1H-pyrrole-2-carboxamide]
5.31	O=C(NCc1cc(-c2ccc(C(F)(F)F)cc2)nc(N2CCN(Cc3cccnc3)CC2)c1)[C@@H]1CC(F)(F)CN1S(=O)(=O)c1ccc(F)cc1 [Example 363, 4,4-Difluoro-1-[(4-fluorophenyl)sulfonyl]-N-({2-[4-(pyridin-3-ylmethyl)piperazin-1-yl]-6-[4-(trifluoromethyl)phenyl]pyridin-4-yl}methyl)-L-prolinamide]
5.56	O=C(NCc1cc(NCc2ccncc2)nc(-c2ccc(C(F)(F)F)cc2)c1)[C@@H]1CCCN1S(=O)(=O)c1ccc(Cl)s1 [Example 364, 1-[(5-Chlorothiophen-2-yl)sulfonyl]-N-({2-[(pyridin-4-ylmethyl)amino]-6-[4-(trifluoromethyl)phenyl]pyridin-4-yl}methyl)-L-prolinamide]
5.77	O=C(NCc1cc(-c2ccc(C(F)(F)F)cc2)nc(N2CCN(Cc3cccnc3)CC2)c1)[C@@H]1C=CCN1S(=O)(=O)c1ccc(F)cc1 [Example 365, (2S)-1-[(4-Fluorophenyl)sulfonyl]-N-({2-[4-(pyridin-3-ylmethyl)piperazin-1-yl]-6-[4-(trifluoromethyl)phenyl]pyridin-4-yl}methyl)-2,5-dihydro-1H-pyrrole-2-carboxamide]
5.78	O=C(NCc1cc(-c2ccc(C(F)(F)F)cc2)nc(N2CCN(Cc3cccnc3)CC2)c1)[C@@H]1CC(F)(F)CN1S(=O)(=O)c1ccc(Cl)s1 [Example 366]
7.74	O=C(NCc1cc(-c2ccc(C(F)(F)F)cc2)nc(N2CCN(Cc3ccccc3)CC2)c1)[C@@H]1CCCN1S(=O)(=O)c1ccc(Cl)s1 [Example 367, N-({2-(4-Benzylpiperazin-1-yl)-6-[4-(trifluoromethyl)phenyl]pyridin-4-yl}methyl)-1-[(5-chlorothiophen-2-yl)sulfonyl]-L-prolinamide]
6.38	O=C(NCc1cc(-c2ccc(C(F)(F)F)cc2)nc(N2CCN(Cc3ccccc3)CC2)c1)[C@@H]1C=CCN1S(=O)(=O)c1ccc(Cl)s1 [Example 368, (2S)—N-({2-(4-Benzylpiperazin-1-yl)-6-[4-(trifluoromethyl)phenyl]pyridin-4-yl}methyl)-1-[(5-chlorothiophen-2-yl)sulfonyl]-2,5-dihydro-1H-pyrrole-2-carboxamide]
7.10	CC(C)CN1CCN(c2cc(CNC(=O)[C@@H]3CCCN3S(=O)(=O)c3ccc(Cl)s3)cc(-c3ccc(C(F)(F)F)cc3)n2)CC1 [Example 369, 1-[(5-Chlorothiophen-2-yl)sulfonyl]-N-({2-[4-(2-methylpropyl)piperazin-1-yl]-6-[4-(trifluoromethyl)phenyl]pyridin-4-yl}methyl)-L-prolinamide]
